The text below walks through data of patent publication US10000771B2, “Nuclear targeting sequences” (Yeda Research and Development Co. Ltd., priority 2007, dated 2018).

One assay concerns SPS domain. The assay is described as follows: SPS phosphorylation detected by anti pSPS Ab Western blot. The format is cell-based. The note with it: COS7 cells; for SPS phosphorylation upon stimulation (anti pSPS Ab recognition): stimulated with VOOH, TPA, EGF or TGFβ, immunoprecipitation and Western blot. As for the experimental part:
FIGS. 4A-4I are autoradiographs characterizing SPS phosphorylation using an Ab to the phosphorylated SPS domain. FIG. 4A illustrates an elevation of pSPS detection upon stimulation. COS cells were transfected with WT-GFP-ERK2. Twenty-four hr after transfection, the cells were serum-starved for 16 hr and subsequently treated with the general stimulator VOOH (V, 100 μM Na3VO4 and 200 μM H2O2, 15 min), TPA (T, 250 nM, 15 min), EGF (E, 50 ng/ml for 15 min), or left untreated (NT). The GFP-ERK2 was immunoprecipitated with anti GFP Ab, extensively washed, and the IP was then subjected to Western blotting with anti phospho SPS-ERK (αphoSPS-ERK) and anti general ERK (αgen-ERK) Abs. FIG. 4B is a time course of SPS phosphorylation. COS7 cells overexpressing WT-GFP-ERK2 were serum starved followed by EGF stimulation for the indicated time points. The lysates were then subjected to Western blot analysis as in FIG. 4A. FIGS. 4C-D. GFP-ERK2 was immunoprecipitated from VOOH stimulated (Act) or non-stimulated (NT), transfected COS7 cells as above. The immunoprecipitated protein was then incubated with shrimp's alkaline phosphates (SAP, 15 units, 30 min, 30° C. in the manufacturer digestion buffer), and subjected to Western blot analysis with anti phosphoSPS-ERK (αpSPS; FIG. 4C), anti phosphoTEY-ERK (αpTEY; FIG. 4D), and anti general-ERK Ab (αgen-ERK; FIGS. 4C, D). FIG. 4E. Elevation of anti pSPS Ab immunoreactivity upon stimulation of endogenous ERKs. Following serum starvation COS7 cells were treated with EGF (50 ng/ml) or VOOH (V, 100 μM Na3VO4 and 200 μM H2O2) for the indicated times. SPS phosphorylation was detected using the anti pSPS Abs, and this was compared to the amount of genral ERKs detected by αgERK. FIG. 4F. Specificity of the anti pSPS Ab. COS7 cells overexpressing either GFP-ERK2 or 244-6A mutant were serum starved for 16 hr, and then treated with EGF (50 ng/ml) for 15 min following WB analysis using αpSPS and αgERK Abs. FIG. 4G. TEY phosphorylation is not required for SPS phosphorylation. COS7 cells overexpressing WT-ERK2 or TEY-AAA were treated as described in D. FIG. 4H. COS7 cells were treated with or without UO126 prior (15 min) to EGF (50 ng/ml) stimulation for the indicated times. SPS-phosphorylation was detected using αpSPS and αgERK Abs. FIG. 4I. Phosphorylation of SPS is mediated by ERK autophosphorylation. […] The phosphorylation (^32P-ERK2) of ERK and its mutants was detected by autoradiography. […]
FIG. 9B is an autoradiograph illustrating that stimulation elevates pSPS phosphorylation of 2GFP-SPS construct. […] The total amount of immunoprecipitated 2GFP-SPS was detected with αGFP Ab. […]
(In general: Immunoblotting shows a protein as a band on a membrane.)

The target in another assay is T1, importin-7 (Homo sapiens, UniProt O95373).
T1 construct: endogenous in cells; host or cells: HeLa
As to the kind of experiment: Coimmunoprecipitation with importin-7. The format is binding. The conditions noted are these: HeLa cells. As for the experimental part:
FIGS. 19A-19C are autoradiographs illustrating that phospho-SPS interacts with importin-7 and releases Nup153c binding without involvment of importin-β. […]. Interaction of ERK2 with Importin-7 is enhanced by EGF stimulation and EPE mutation. HeLa cells overexpressing WT-ERK (WT), ERK-APA (APA), ERK-EPE (EPE) or GFP were serum starved and treated with EGF (50 ng/ml, 10 min). The extracts of the treated cells were then subjected to coimmunoprecipitation using A/G beads pre-conjugated with anti GFP Ab and mild washes. The coimmunoprecipitated importin-7 (first panel) and importin-β (third panel), as well as their loading amounts (panels 2 and 4 respectively) were determined by WB using anti importin-7 (αImp7) and importin-β (αImpβ) Abs. The equal amount of immunoprecipitated ERKs was determined with anti GFP (αGFP; IP) Ab. FIG. 19B. Interaction of 2GFP-SPS and its mutants with importin-7. HeLa cells overexpressing 2GFP, 2GFP-SPS, 2GFP-APA and 2GFP-EPE constructs were subjected to coimmunoprecipitation as described in FIG. 19A (without EGF stimulation). FIG. 19C. Interaction of NUP153 with WTERK2 and its APA and EPE mutants. NUP153c is elevated in APA-ERK2, but reduced in EPE-ERK2. Immunoprecipitated and stringently washed WT-ERK2 (WT), APA-ERK2 (APA) or ERK2 from […] cells pre-treated with or without TPA (250 nM, 15 min) were incubated with 0.5 μg recombinant His-Nup153c. This was followed by mild washing, and the beads were then subjected to Western blot analysis using anti His (αHis) and anti αGFP Abs.
Immunoprecipitation. Cellular extracts of stimulated transfected cells, were incubated with anti-GFP antibody preconugated to A/G beads (Santa Cruz; (2 hr, 4° C.). Subsequently, the beads were washed twice with HNTG buffer and once with 0.5 M LiCl. The immunoprecipitates were subjected either to Western blotting as described above or to an in vitro phosphatase assay as described under Results.

Ends that are not written are not given here. 2GFP = dimer of GFP proteins

T1 sequence (O95373 whole entry): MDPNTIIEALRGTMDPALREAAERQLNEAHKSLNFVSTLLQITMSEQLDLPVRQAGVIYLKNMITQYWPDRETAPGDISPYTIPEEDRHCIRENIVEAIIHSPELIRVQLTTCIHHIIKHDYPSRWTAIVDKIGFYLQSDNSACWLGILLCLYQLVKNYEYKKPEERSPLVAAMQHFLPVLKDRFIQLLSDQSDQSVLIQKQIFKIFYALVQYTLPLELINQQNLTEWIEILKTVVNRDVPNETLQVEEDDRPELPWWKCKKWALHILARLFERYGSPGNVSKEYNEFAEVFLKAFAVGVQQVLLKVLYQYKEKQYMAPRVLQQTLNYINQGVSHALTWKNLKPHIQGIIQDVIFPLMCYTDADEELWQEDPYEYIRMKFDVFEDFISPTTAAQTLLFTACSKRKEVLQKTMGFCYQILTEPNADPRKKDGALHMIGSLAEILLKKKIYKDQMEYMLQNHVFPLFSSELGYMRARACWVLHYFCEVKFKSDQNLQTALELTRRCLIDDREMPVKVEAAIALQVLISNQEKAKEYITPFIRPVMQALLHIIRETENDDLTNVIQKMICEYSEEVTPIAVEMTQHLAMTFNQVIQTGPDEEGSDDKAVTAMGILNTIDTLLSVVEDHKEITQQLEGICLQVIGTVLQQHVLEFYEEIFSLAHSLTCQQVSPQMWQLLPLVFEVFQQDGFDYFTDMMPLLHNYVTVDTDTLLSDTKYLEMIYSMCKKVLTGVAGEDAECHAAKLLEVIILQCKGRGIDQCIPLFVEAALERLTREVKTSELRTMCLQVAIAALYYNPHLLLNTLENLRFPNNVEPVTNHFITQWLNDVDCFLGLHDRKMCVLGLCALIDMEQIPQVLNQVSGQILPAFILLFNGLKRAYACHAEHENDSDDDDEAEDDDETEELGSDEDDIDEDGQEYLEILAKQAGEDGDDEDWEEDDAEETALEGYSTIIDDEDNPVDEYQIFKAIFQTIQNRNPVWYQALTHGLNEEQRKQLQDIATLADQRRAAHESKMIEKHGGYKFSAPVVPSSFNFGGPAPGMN

As for “2GFP-SPS: 2GFP with the 19 amino acid stretch containing the SPS of ERK2 (SEQ ID NO: 6) fused to its C terminus (2GFP-LDQLNHILGILGSPSQEDL)”, the “SPS phosphorylation upon stimulation (anti pSPS Ab recognition)” value in the assay with SPS domain is reported as “elevates”. The “interaction of 2GFP constructs with importin-7” value with importin-7 (coimmunoprecipitation, without EGF stimulation) is “did bind importin-7”.
As for “WT-ERK2: wild-type ERK2 fused to GFP, prepared in pEGFP C1 [reference compound]”, the “time of peak SPS phosphorylation” value in the assay with SPS domain (following EGF stimulation) stood at 15 min. In addition, the “SPS phosphorylation upon stimulation (anti pSPS Ab recognition)” value with SPS domain is reported as “significantly increased”. Moreover, in the assay with importin-7 (coimmunoprecipitation with anti GFP Ab, with or without stimulation), the “interaction of ERK2 constructs with importin-7” value is “significantly increased upon TPA stimulation”.
